Results taken from patent US20160113895A1, “Novel Use of Adapalene in Treating Esophageal Cancer and Gastrointestinal Stromal Tumor” (Biodelight Biotech Inc., priority 2013, published 2016).

Columns and labels:
H460 = assay: 2D cell proliferation assay (Alamar Blue), H460; assay type: cell-based, human; settings: Homo sapiens, NCI-H460; 2D, H460, 72 h; read-out: IC50
Excerpt: Nsl-8 was subjected to 2D cell proliferation assays using four NSCLC cell lines (A549 (human adenocarcinomic alveolar basal epithelial cells with k-ras gene mutation), H1299 (human non-small cell lung carcinoma cell line with p53 mutation), H460 (human non-small cell lung carcinoma cell line with k-ras gene mutation), and HCC827 (human NSCLC cells with EGFR mutation of deletion from E746 to A750)) and the results were presented in Table 2. There were eight concentrations used for each drug for determining its IC50. […]. Actinomycin D was a chemotherapeutic drug simply used as a quality control for all the experiments.
(§1) In the 2D cell proliferation assay, cells were cultured in DMEM containing 10% FCS and Penicillin/Streptomycin. For the assays, cells were seeded in 150 μL medium on a 96-well cell culture plate and incubated at 37° C. overnight before the compounds were added. Compounds were prepared as predilution which was 16 fold concentrated to the final assay concentration. A day after cell seeding, 10 μL of prediluted compounds was added to the cells (1:16 dilution). Treatment of cells with 0.1% DMSO or 1% DMSO (for the two top concentrations of nsl-8) and 1.0E-05 M Staurosporine was served as high control (100% viability) and low control (0% viability), respectively. Measurement of the impact of compounds on cell viability was performed as follows: 5000 cells (A549 and HCC827) or 2500 cells (H1299 and H460) were seeded in the inner wells of 96-well-plates in 150 μL complete medium. Next day, compounds were added to the medium to reach the final concentration and then incubated at 37° C. in 5% or 10% CO2 depending on the medium for 72 h. Subsequently 10 μL Alamar Blue reagent was added and fluorescence at 590 nm was measured after 5 h incubation at 37° C. in 5% CO2 using a fluorometer.
(§2) Raw data were converted into percent cell viability relative to high control (solvent 0.1% DMSO or 1% DMSO for the two top concentrations of drug nsl-8) and low control (1.0E-05 M Staurosporine), which were set to 100% and 0%, respectively.

HCC827 [1] = assay: 2D cell proliferation assay (Alamar Blue), HCC827; assay type: cell-based, human; settings: Homo sapiens, HCC827, 72 h
Method: There were eight concentrations used for each drug for determining its IC50. […] Actinomycin D was a chemotherapeutic drug simply used as a quality control for all the experiments.
as §1, with “Compounds were prepared as predilution which was 16 fold concentrated to the final assay concentration.” left out, “h.” for “h. Subsequently 10 μL Alamar Blue reagent was added and fluorescence at 590 nm was measured after 5 h incubation at 37° C. in 5% CO2 using a fluorometer.”
as §2

A549 = assay: 3D cell proliferation assay (soft agar), A549; assay type: cell-based, human; settings: Homo sapiens, 3D soft agar
Method: (§3) Drug nsl-8 was further subjected to a 3D cell proliferation assay for assessing its potential in inhibiting the growth of NSCLC tumors. The same four NSCLC cell lines used in 2D proliferation assays were grown in soft agar and the drug was added after the agar has solidified. The drug added cells were then incubated several days until colonies have formed in the solvent control. Subsequently, Alamar Blue which was a cell viability reagent was added and the corresponding fluorescence released was measured as an indirect quantification of colony growth in soft agar.
(§4) For each cell line, some 96 well culture plates were prepared. 100 μL of the soft agar bottom layer (0.6% final concentration in complete medium) was poured and left to solidify. 50 μL of the soft agar top layer (0.4% final concentration) containing the corresponding cells and cell number were then added on top, solidified and such 96 well plates were incubated overnight at 37° C. in 10% CO2. Next day, drugs were added at indicated final concentrations into the inner wells of the plate. Subsequently, the assays were incubated in cell culture incubators for the indicated period of time. Finally, the assays were developed using Alamar Blue and upon 3-5 h of incubation at 37 ° C. fluorescence intensity was determined (excitation: 560 nm, emission: 590 nm). […]

H1299 = assay: 3D cell proliferation assay (soft agar), H1299; assay type: cell-based, human; settings: Homo sapiens, NCI-H1299, 3D soft agar
Method: as §3, §4

HCC827 [2] = assay: 3D cell proliferation assay (soft agar), HCC827; assay type: cell-based, human; settings: Homo sapiens, 3D soft agar
Method: as §3, §4

[3] = test system: four NSCLC cell lines (A549, H1299, H460, HCC827); assay: 3D cell proliferation assay, summary over the NSCLC cell lines; assay type: cell-based; settings: Homo sapiens, span over the four NSCLC cell lines
Method: as §3, §4

COc1ccc(-c2ccc3cc(C(=O)O)ccc3c2)cc1C12CC3CC(CC(C3)C1)C2 [nsl-8, 6-[3-(1-adamantyl)-4-methoxyphenyl]-2-naphthalenecarboxylic acid]
IC50 (H460): 2 µM
IC50 (HCC827 [1]): 11 µM
IC50 (A549): 0.99 µM
IC50 (H1299): 13 µM
IC50 (HCC827 [2]): 7.2 µM
IC50 [3]: 0.99 to 13 µM
